The text below walks through data of patent US8431702B2, “Therapeutically useful substituted hydropyrido [3,2,1-ij] quinoline compounds” (Allergan, Inc., priority 2008, dated 2013).

The term IC50 denotes the concentration at which inhibition is half-maximal.

Where two headings read alike, the source gives them in different places.

The experiment has as its target T1, human S1P3 receptor (Homo sapiens, UniProt Q99500).
T1 construct: expressed in transfected cells
Briefly: FLIPR calcium (Fluo-4) assay for activation or block of activation of human S1P3 receptor in T24 cells. Type of experiment: cell-based. The protocol: The compounds of the invention are assessed for their ability to activate or block activation of the human S1P3 receptor in T24 cells stably expressing the human S1P3 receptor using the method described in paragraph [0067] of United States Patent Application Publication No. 20070232682, which published on Oct. 4, 2007, which is hereby incorporated by reference in its entirety.
Ten thousands cells/well are plated into 384-well poly-D-lysine coated plates one day prior to use. The growth media for the S1P3 receptor expressing cell line is McCoy's 5A medium supplemented with 10% charcoal-treated fetal bovine serum (FBS), 1% antibiotic-antimycotic and 400 μg/ml geneticin. On the day of the experiment, the cells are washed twice with Hank's Balanced Salt Solution supplemented with 20 mM HEPES (HBSS/Hepes buffer). The cells are then dye loaded with 2 μM Fluo-4 diluted in the HBSS/Hepes buffer with 1.25 mM Probenecid and incubated at 37° C. for 40 minutes. Extracellular dye is removed by washing the cell plates four times prior to placing the plates in the FLIPR (Fluorometric Imaging Plate Reader, Molecular Devices). Ligands are diluted in HBSS/Hepes buffer and prepared in 384-well microplates. The positive control, Sphingosine-1-phosphate (S1P), is diluted in HBSS/Hepes buffer with 4 mg/ml fatty acid free bovine serum albumin. The FLIPR transfers 12.5 μl from the ligand microplate to the cell plate and takes fluorescent measurements for 75 seconds, taking readings every second, and then for 2.5 minutes, taking readings every 10 seconds. Compounds are tested over the concentration range of 0.61 nM to 10,000 nM. Data for calcium ion (Ca^+2) responses are obtained in arbitrary fluorescence units and not translated into Ca^+2 concentrations. IC50 values (nM) are determined through a […] analysis using the Levenburg Marquardt algorithm.

The mark [1] stands for this setting: T24 cells stably expressing the human S1P3 receptor, tested over 0.61 nM to 10,000 nM.
[2] abbreviates: T24 cells stably expressing the human S1P3 receptor, tested over 0.61 nM to 10,000 nM, read-out: S1P3 IC50.

T1 sequence (Q99500 whole entry): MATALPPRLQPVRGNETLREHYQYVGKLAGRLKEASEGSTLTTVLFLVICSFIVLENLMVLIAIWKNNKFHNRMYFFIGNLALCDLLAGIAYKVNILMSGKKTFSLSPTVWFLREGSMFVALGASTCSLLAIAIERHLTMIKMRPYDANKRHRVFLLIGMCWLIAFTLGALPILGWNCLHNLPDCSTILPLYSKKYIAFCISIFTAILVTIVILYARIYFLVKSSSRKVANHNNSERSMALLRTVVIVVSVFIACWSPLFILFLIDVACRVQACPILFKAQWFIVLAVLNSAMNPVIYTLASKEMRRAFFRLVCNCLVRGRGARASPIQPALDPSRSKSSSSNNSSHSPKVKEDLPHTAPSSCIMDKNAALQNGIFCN

In the case of `CC(C)(C)NC(=O)Nc1cc2c3c(c1)[C@](C)(c1ccccc1)CCN3CC[C@@]2(C)c1ccccc1` [Compound 581, 1-t-butyl-3-((1S,7S)-1,7-dimethyl-1,7-diphenyl-1,2,3,5,6,7-hexahydropyrido[3,2,1-ij]quinolin-9-yl)urea], the “S1P3 % Inhibition” value under setting [1] amounted to 98%. Besides, under setting [2], the IC50 is 0.349 µM. In the case of `CSC(=O)Nc1cc2c3c(c1)[C@@](C)(c1ccccc1)CCN3CC[C@@]2(C)c1ccccc1` [Compound 582, S-methyl (1R,7S)-1,7-dimethyl-1,7-diphenyl-1,2,3,5,6,7-hexahydropyrido[3,2,1-ij]quinolin-9-ylcarbamothioate], the IC50 was 0.004 µM. Besides, under setting [1], the “S1P3 % Inhibition” value is on record as 99%. On the same counts, the results for `CSC(=O)Nc1cc2c3c(c1)[C@](C)(c1ccccc1)CCN3CC[C@@]2(C)c1ccccc1` [Compound 583, S-methyl (1S,7S)-1,7-dimethyl-1,7-diphenyl-1,2,3,5,6,7-hexahydropyrido[3,2,1-ij]quinolin-9-ylcarbamothioate] are 0.01 µM and 98%. As for `CCCSC(=O)Nc1cc2c3c(c1)[C@@](C)(c1ccccc1)CCN3CC[C@@]2(C)c1ccccc1` [Compound 584, S-propyl (1R,7S)-1,7-dimethyl-1,7-diphenyl-1,2,3,5,6,7-hexahydropyrido[3,2,1-ij]quinolin-9-ylcarbamothioate], the half-inhibitory concentration (IC50) worked out at 0.016 µM. Besides, the “S1P3 % Inhibition” value under setting [1] was determined as 98%. On the same counts, the results for `CCCSC(=O)Nc1cc2c3c(c1)[C@](C)(c1ccccc1)CCN3CC[C@@]2(C)c1ccccc1` [Compound 585, S-propyl (1S,7S)-1,7-dimethyl-1,7-diphenyl-1,2,3,5,6,7-hexahydropyrido[3,2,1-ij]quinolin-9-ylcarbamothioate] are 0.005 µM and 98%.

Take `CSC(=O)Nc1cc2c3c(c1)[C@](C)(c1ccc(F)cc1)CCN3CC[C@@]2(C)c1ccc(F)cc1` [Compound 671, S-methyl (1S,7S)-1,7-bis(4-fluorophenyl)-1,7-dimethyl-1,2,3,5,6,7-hexahydropyrido[3,2,1-ij]quinolin-9-ylcarbamothioate]: the IC50 was 0.025 µM. For the same compound, under setting [1], the “S1P3 % Inhibition” value is on record as 97%. On to `CCCCOC(=O)Nc1cc2c3c(c1)[C@](C)(c1ccc(F)cc1)CCN3CC[C@@]2(C)c1ccc(F)cc1` [Compound 672, butyl (1S,7S)-1,7-bis(4-fluorophenyl)-1,7-dimethyl-1,2,3,5,6,7-hexahydropyrido[3,2,1-ij]quinolin-9-ylcarbamate], for which the IC50 is 0.086 µM. Besides, under setting [1], the “S1P3 % Inhibition” value came out at 89%. On the same counts, the results for `CCCSC(=O)Nc1cc2c3c(c1)[C@](C)(c1ccc(F)cc1)CCN3CC[C@@]2(C)c1ccc(F)cc1` [Compound 673, S-propyl (1S,7S)-1,7-bis(4-fluorophenyl)-1,7-dimethyl-1,2,3,5,6,7-hexahydropyrido[3,2,1-ij]quinolin-9-ylcarbamothioate] are 0.062 µM and 97%. `COC(=O)Nc1cc2c3c(c1)[C@](C)(c1ccc(F)cc1)CCN3CC[C@@]2(C)c1ccc(F)cc1` [Compound 674, methyl (1S,7S)-1,7-bis(4-fluorophenyl)-1,7-dimethyl-1,2,3,5,6,7-hexahydropyrido[3,2,1-ij]quinolin-9-ylcarbamate]: the 50% inhibitory concentration (IC50) was determined as 0.046 µM. The “S1P3 % Inhibition” value under setting [1] stood at 96%. Turning to `CSC(=O)Nc1cc2c3c(c1)C(c1ccccc1)CCN3CCC2c1ccccc1` (stereo not shown) [Compound 699], under setting [1], the “S1P3 % Inhibition” value is 100%. Besides, the 50% inhibitory concentration (IC50) under setting [2] turned out to be 0.004 µM. Taken in the same sequence, the figures for `CCCSC(=O)Nc1cc2c3c(c1)C(c1ccccc1)CCN3CCC2c1ccccc1` (stereo not shown) [Compound 700] were 100% and 0.007 µM.

As for `O=C(NCCCl)Nc1cc2c3c(c1)C(c1ccccc1)CCN3CCC2c1ccccc1` (stereo not shown) [Compound 769, 1-(2-chloroethyl)-3-(1,7-diphenyl-1,2,3,5,6,7-hexahydropyrido[3,2,1-ij]quinolin-9-yl)urea], the “S1P3 % Inhibition” value under setting [1] is 100%. With `C=CCNC(=O)Nc1cc2c3c(c1)C(c1ccccc1)CCN3CCC2c1ccccc1` (stereo not shown) [Compound 773, 1-allyl-3-(1,7-diphenyl-1,2,3,5,6,7-hexahydropyrido[3,2,1-ij]quinolin-9-yl)urea], the “S1P3 % Inhibition” value under setting [1] stood at 100%. For the compound `CNC(=O)c1cc2c3c(c1)C(c1ccccc1)CCN3CCC2c1ccccc1` (stereo not shown) [Compound 775, N-methyl-1,7-diphenyl-1,2,3,5,6,7-hexahydropyrido[3,2,1-ij]quinoline-9-carboxamide], the “S1P3 % Inhibition” value under setting [1] is on record as 100%. The IC50 under setting [2] was determined as 0.619 µM.

Regarding `COC(=O)Nc1cc2c3c(c1)C(c1cccc(F)c1)CCN3CCC2c1cccc(F)c1` (stereo not shown) [Compound 779, Methyl 1,7-bis(3-fluorophenyl)-1,2,3,5,6,7-hexahydropyrido[3,2,1-ij]quinolin-9-ylcarbamate], under setting [1], the “S1P3 % Inhibition” value was 101%. Consider `COC(=O)Nc1cc2c3c(c1)[C@](C)(c1ccccc1)CCN3CC[C@@]2(C)c1ccccc1` [Compound 829, methyl (1S,7S)-1,7-dimethyl-1,7-diphenyl-1,2,3,5,6,7-hexahydropyrido[3,2,1-ij]quinolin-9-ylcarbamate], for which the 50% inhibitory concentration (IC50) was 0.007 µM. For the same compound, under setting [1], the “S1P3 % Inhibition” value was found to be 97%. As for `CCOC(=O)Nc1cc2c3c(c1)[C@](C)(c1ccccc1)CCN3CC[C@@]2(C)c1ccccc1` [Compound 941, Ethyl (1S,7S)-1,7-dimethyl-1,7-diphenyl-1,2,3,5,6,7-hexahydropyrido[3,2,1-ij]quinolin-9-ylcarbamate], the half-inhibitory concentration (IC50) worked out at 0.013 µM. The “S1P3 % Inhibition” value under setting [1] was 100%. With `CCCOC(=O)Nc1cc2c3c(c1)[C@](C)(c1ccccc1)CCN3CC[C@@]2(C)c1ccccc1` [Compound 942, Propyl (1S,7S)-1,7-dimethyl-1,7-diphenyl-1,2,3,5,6,7-hexahydropyrido[3,2,1-ij]quinolin-9-ylcarbamate], the 50% inhibitory concentration (IC50) came out at 0.072 µM. Also, the “S1P3 % Inhibition” value under setting [1] came to 100%. Consider `CCCCOC(=O)Nc1cc2c3c(c1)[C@](C)(c1ccccc1)CCN3CC[C@@]2(C)c1ccccc1` [Compound 943, Butyl (1S,7S)-1,7-dimethyl-1,7-diphenyl-1,2,3,5,6,7-hexahydropyrido[3,2,1-ij]quinolin-9-ylcarbamate], for which the IC50 was 0.075 µM. Further, under setting [1], the “S1P3 % Inhibition” value is 100%. Taken in the same sequence, the figures for `C[C@@]1(c2ccccc2)CCN2CC[C@@](C)(c3ccccc3)c3cc(NC(=O)OCCF)cc1c32` [Compound 944, 2-fluoroethyl (1S,7S)-1,7-dimethyl-1,7-diphenyl-1,2,3,5,6,7-hexahydropyrido[3,2,1-ij]quinolin-9-ylcarbamate] were 0.027 µM and 100%.

For the compound `C[C@@]1(c2ccccc2)CCN2CC[C@@](C)(c3ccccc3)c3cc(NC(=O)OCCCCl)cc1c32` [Compound 945, 3-chloropropyl (1S,7S)-1,7-dimethyl-1,7-diphenyl-1,2,3,5,6,7-hexahydropyrido[3,2,1-ij]quinolin-9-ylcarbamate], the IC50 is 0.068 µM. Besides, the “S1P3 % Inhibition” value under setting [1] turned out to be 100%.

As for `O=C(Nc1cc2c3c(c1)C(c1ccccc1)CCN3CCC2c1ccccc1)N1CCOCC1` (stereo not shown) [Compound 983, N-(1,7-diphenyl-1,2,3,5,6,7-hexahydropyrido[3,2,1-ij]quinolin-9-yl)morpholine-4-carboxamide], the “S1P3 % Inhibition” value under setting [1] came to 100%.
